For 5 molecules, inhibition and IC50 results are on record in ChEMBL document CHEMBL4417633, “Inhibitory polypeptides specific to WNT inhibitors” (2017).

Activity calls are given as the source filed them. The calls are words filed in the database; no cut-off is given here. Where a SMILES comes first, the peptide text is derived from it.

The target in assay [1] is T1, Dickkopf-related protein 1 (Homo sapiens) (UniProt O94907).
T1 sequence (whole entry): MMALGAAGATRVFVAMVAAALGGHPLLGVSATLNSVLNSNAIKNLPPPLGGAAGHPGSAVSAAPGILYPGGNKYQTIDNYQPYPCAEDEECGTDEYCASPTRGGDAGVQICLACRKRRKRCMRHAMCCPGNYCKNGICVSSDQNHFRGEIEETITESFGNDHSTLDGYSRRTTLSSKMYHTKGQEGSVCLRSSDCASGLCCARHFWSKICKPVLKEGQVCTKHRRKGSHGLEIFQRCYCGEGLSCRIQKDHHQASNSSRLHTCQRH
In words: Inhibition of biotin-labeled human recombinant DKK1 assessed as reduction in DKK1 interaction with LRP-6/Fc incubated overnight by chemiluminescence based Alpha-screen assay. In general terms: Alpha assays give light when donor and acceptor beads are brought close together.

In assay [2] the target is T2, Dickkopf WNT-signaling pathway inhibitor 1 (Rattus norvegicus) (UniProt A6I0Z0).
T2 sequence (whole entry): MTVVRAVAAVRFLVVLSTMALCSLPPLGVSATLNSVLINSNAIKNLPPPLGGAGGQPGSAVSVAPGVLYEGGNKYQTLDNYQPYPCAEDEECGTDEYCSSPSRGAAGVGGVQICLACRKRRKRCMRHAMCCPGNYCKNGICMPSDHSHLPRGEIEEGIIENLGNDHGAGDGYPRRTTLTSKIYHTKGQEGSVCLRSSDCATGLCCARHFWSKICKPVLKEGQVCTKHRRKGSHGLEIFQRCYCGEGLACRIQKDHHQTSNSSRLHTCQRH
The assay can be described thus: Inhibition of biotin-labeled rat recombinant DKK1 assessed as reduction in DKK1 interaction with LRP-6/Fc incubated overnight by chemiluminescence based Alpha-screen assay.

Assay [3] addresses T3, Dickkopf-related protein 1 (Homo sapiens, UniProt O94907).
T3 sequence (O94907 whole entry): T1 sequence (whole entry)
In words: Inhibition of human DKK1 in MC3T3E1/TetON-Wnt1/STF-Luc#5 cells assessed as DKK1 neutralizing activity by Wnt1-induced TCF/LEF luciferase reporter gene assay. On the technique in general: Reporter assays use an easily measured gene product as a stand-in for the process of interest.

`CC[C@H](C)[C@H](NC(=O)[C@H](CS)NC(=O)[C@H](CC(=O)O)NC(=O)[C@@H]1CCCN1C(=O)[C@H](Cc1ccccc1)NC(=O)CNC(=O)[C@H](CC(=O)O)NC(=O)[C@H](CS)NC(=O)[C@H](CCCNC(=N)N)NC(=O)[C@H](Cc1c[nH]c2ccccc12)NC(=O)[C@H](CCC(=O)O)NC(=O)[C@H](CCSC)NC(=O)[C@@H]1CCCN1C(=O)[C@H](Cc1ccc(O)cc1)NC(=O)[C@H](CS)NC(=O)[C@H](Cc1cnc[nH]1)NC(=O)[C@@H]1CCCN1C(=O)[C@H](Cc1cnc[nH]1)NC(=O)[C@H](CC(N)=O)NC(=O)[C@H](CCCNC(=N)N)NC(=O)[C@H](CS)NC(=O)[C@H](CCCCN)NC(=O)[C@H](Cc1ccccc1)NC(=O)[C@H](Cc1ccc(O)cc1)NC(=O)[C@H](CO)NC(=O)[C@H](C)NC(=O)[C@@H]1CCCN1C(=O)[C@@H](N)CS)C(=O)N[C@@H](CC(=O)O)C(=O)NCC(=O)N[C@@H](CO)C(=O)N[C@@H](CC(=O)O)C(=O)N[C@@H](CCC(=O)O)C(=O)N[C@H](C(=O)N[C@@H](C)C(=O)N[C@@H](CS)C(=O)NCC(=O)NCC(=O)NCC(=O)NCC(=O)O)[C@H](C)O`: the inhibition result in assay [1] and in assay [2] was “Active” each time. Besides, the IC50 (in general, the midpoint of a concentration-inhibition curve) in assay [3] is 0.8 to 3 nM.
`CSCC[C@H](NC(=O)[C@@H]1CCCN1C(=O)[C@H](Cc1ccc(O)cc1)NC(=O)[C@H](CS)NC(=O)[C@H](Cc1cnc[nH]1)NC(=O)[C@@H]1CCCN1C(=O)[C@H](Cc1cnc[nH]1)NC(=O)[C@H](CC(N)=O)NC(=O)[C@H](CCCNC(=N)N)NC(=O)[C@H](CS)NC(=O)[C@H](CCC(N)=O)NC(=O)[C@H](Cc1ccccc1)NC(=O)[C@H](Cc1ccc(O)cc1)NC(=O)[C@H](CO)NC(=O)[C@H](CCC(=O)O)NC(=O)[C@@H]1CCCN1C(=O)[C@@H](N)CS)C(=O)N[C@@H](CCC(=O)O)C(=O)N[C@@H](Cc1c[nH]c2ccccc12)C(=O)N[C@@H](CCCNC(=N)N)C(=O)N[C@@H](CS)C(=O)N[C@@H](CC(=O)O)C(=O)NCC(=O)N[C@@H](Cc1ccccc1)C(=O)N1CCC[C@H]1C(=O)N[C@@H](CC(=O)O)C(=O)N[C@@H](CS)C(=O)N[C@H](C(=O)N[C@@H](CC(=O)O)C(=O)NCC(=O)N[C@@H](CO)C(=O)N[C@@H](CC(=O)O)C(=O)N[C@@H](CCC(=O)O)C(=O)N[C@@H](CC(C)C)C(=O)N[C@@H](CC(=O)O)C(=O)N[C@@H](CS)C(=O)NCC(=O)NCC(=O)NCC(=O)NCC(=O)O)C(C)C` (H-CPESYFQCRNHPHCYPMEWRCDGFPDCVDGSDELDCGGGG-OH): the inhibition result in assay [1] and in assay [2] was “Active” throughout. For the same molecule, the IC50 in assay [3] was in the range of 0.8 to 3 nM.
Turning to `CC[C@H](C)[C@H](NC(=O)[C@H](CS)NC(=O)[C@H](CC(=O)O)NC(=O)[C@@H]1CCCN1C(=O)[C@H](Cc1ccccc1)NC(=O)CNC(=O)[C@H](CC(=O)O)NC(=O)[C@H](CS)NC(=O)[C@H](CCCNC(=N)N)NC(=O)[C@H](Cc1c[nH]c2ccccc12)NC(=O)[C@H](CCC(=O)O)NC(=O)[C@H](CCSC)NC(=O)[C@@H]1CCCN1C(=O)[C@H](Cc1ccc(O)cc1)NC(=O)[C@H](CS)NC(=O)[C@H](Cc1cnc[nH]1)NC(=O)[C@@H]1CCCN1C(=O)[C@H](Cc1cnc[nH]1)NC(=O)[C@H](CC(N)=O)NC(=O)[C@H](CCCNC(=N)N)NC(=O)[C@H](CS)NC(=O)[C@H](CCC(N)=O)NC(=O)[C@H](Cc1ccccc1)NC(=O)[C@H](Cc1ccc(O)cc1)NC(=O)[C@H](CO)NC(=O)[C@@H](NC(=O)[C@@H]1CCCN1C(=O)[C@@H](N)CS)C(C)C)C(=O)N[C@@H](CC(=O)O)C(=O)NCC(=O)N[C@@H](CO)C(=O)N[C@@H](CC(=O)O)C(=O)N[C@@H](CCC(=O)O)C(=O)N[C@@H](CCC(=O)O)C(=O)NCC(=O)N[C@@H](CS)C(=O)NCC(=O)NCC(=O)NCC(=O)NCC(=O)O` (H-CPVSYFQCRNHPHCYPMEWRCDGFPDCIDGSDEEGCGGGG-OH), the inhibition result in assay [1] and in assay [2] was “Active” in each case. In assay [3], the IC50 lay in the range of 0.8 to 3 nM.
As for `CC[C@H](C)[C@H](NC(=O)[C@H](CS)NC(=O)[C@H](CC(=O)O)NC(=O)[C@@H]1CCCN1C(=O)[C@H](Cc1ccccc1)NC(=O)CNC(=O)[C@H](CC(=O)O)NC(=O)[C@H](CS)NC(=O)[C@H](CCCNC(=N)N)NC(=O)[C@H](Cc1c[nH]c2ccccc12)NC(=O)[C@H](CCC(=O)O)NC(=O)[C@H](CCSC)NC(=O)[C@@H]1CCCN1C(=O)[C@H](Cc1ccc(O)cc1)NC(=O)[C@H](CS)NC(=O)[C@H](Cc1cnc[nH]1)NC(=O)[C@@H]1CCCN1C(=O)[C@H](Cc1cnc[nH]1)NC(=O)[C@H](Cc1c[nH]c2ccccc12)NC(=O)[C@H](CCCNC(=N)N)NC(=O)[C@H](CS)NC(=O)[C@H](CCC(N)=O)NC(=O)[C@H](Cc1ccccc1)NC(=O)[C@H](Cc1ccc(O)cc1)NC(=O)[C@H](CO)NC(=O)[C@H](C)NC(=O)[C@@H]1CCCN1C(=O)[C@@H](N)CS)C(=O)N[C@@H](CC(=O)O)C(=O)NCC(=O)N[C@@H](CO)C(=O)N[C@@H](CC(=O)O)C(=O)N[C@@H](CCC(=O)O)C(=O)N[C@@H](CCC(=O)O)C(=O)N[C@@H](CO)C(=O)N[C@@H](CS)C(=O)NCC(=O)NCC(=O)NCC(=O)NCC(=O)O` (H-CPASYFQCRWHPHCYPMEWRCDGFPDCIDGSDEESCGGGG-OH), the inhibition result in assay [1] and in assay [2] was “Active” each time. Further, in assay [3], the IC50 lay within 0.8 to 3 nM.
As to `CC[C@H](C)[C@H](NC(=O)[C@H](CS)NC(=O)[C@H](CC(=O)O)NC(=O)[C@@H]1CCCN1C(=O)[C@H](Cc1ccccc1)NC(=O)CNC(=O)[C@H](CC(=O)O)NC(=O)[C@H](CS)NC(=O)[C@H](CCCNC(=N)N)NC(=O)[C@H](Cc1c[nH]c2ccccc12)NC(=O)[C@H](CCC(=O)O)NC(=O)[C@H](CCSC)NC(=O)[C@@H]1CCCN1C(=O)[C@H](Cc1ccc(O)cc1)NC(=O)[C@H](CS)NC(=O)[C@H](Cc1cnc[nH]1)NC(=O)[C@@H]1CCCN1C(=O)[C@H](Cc1cnc[nH]1)NC(=O)[C@H](CCCCN)NC(=O)[C@H](CCCNC(=N)N)NC(=O)[C@H](CS)NC(=O)[C@H](CCC(N)=O)NC(=O)[C@H](Cc1ccccc1)NC(=O)[C@H](Cc1ccc(O)cc1)NC(=O)[C@H](CO)NC(=O)[C@H](C)NC(=O)[C@@H]1CCCN1C(=O)[C@@H](N)CS)C(=O)N[C@@H](CC(=O)O)C(=O)NCC(=O)N[C@@H](CO)C(=O)N[C@@H](CC(=O)O)C(=O)N[C@@H](CCC(=O)O)C(=O)N[C@@H](CCC(=O)O)C(=O)N[C@@H](CCCNC(=N)N)C(=O)N[C@@H](CS)C(=O)NCC(=O)NCC(=O)NCC(=O)NCC(=O)O` (H-CPASYFQCRKHPHCYPMEWRCDGFPDCIDGSDEERCGGGG-OH), the inhibition result in assay [1] and in assay [2] was “Active” in each case. Further, the IC50 in assay [3] fell in the range of 0.8 to 3 nM.
